Assay results published in patent US12145944B2, “Imidazopyrimidines as EED inhibitors and the use thereof” (THE REGENTS OF THE UNIVERSITY OF MICHIGAN, priority 2019, dated 2024).
Where two headings read alike, the source gives them in different places.

Tested on: KARPAS422 human B cell lymphoma cell
Assay: Cell proliferation, KARPAS422, 7 day treatment (WST-8)
Type: cell-based
Details: anti-proliferative IC50, Karpas 422 cell line, 7 day treatment, read-out: Karpas Cell line
Procedure: “N/A” stands for “not assessed”.
Analysis of Cell Proliferation:
To assess the effect of PRC2 inhibition on cell growth, cells were seeded in 96-well cell culture plates at a density of 2 000-3 000 cells/well in 200 µL of culture medium, and treated with serially diluted compounds for 7 days at 37° C. in an atmosphere of 5% CO2. Cell growth was evaluated by a […] WST-8 assay (Dojindo Molecular Technologies) using a Tecan Infinite M1000 multimode microplate reader (Tecan, Morrisville, NC). The WST-8 reagent was added to the plate, incubated for 1-4 h, and read at 450 nm. The readings were normalized to the DMSO-treated cells, and the IC50 was calculated by nonlinear regression analysis using GraphPad Prism 6 software

[1] = Homo sapiens, KARPAS-422, 168 h

| IC50 [1] [nM] | IC50 [nM] | SMILES |
| --- | --- | --- |
| > 100 | – | c1ccc(-c2cnc(NCc3ccco3)n3cncc23)cc1 [Cpd. No. 126, N-(furan-2-ylmethyl)-8-phenylimidazo[1,5-c]pyrimidin-5-amine] |
| > 100 | – | CCOC(=O)c1ncn2c(NCc3ccco3)ncc(-c3ccccc3)c12 [Cpd. No. 127, ethyl 5-((furan-2-ylmethyl)amino)-8-phenylimidazo[1,5-c]pyrimidine-1-carboxylate] |
| > 100 | – | CNC(=O)c1ncn2c(NCc3ccco3)ncc(-c3ccccc3)c12 [Cpd. No. 128, 5-((furan-2-ylmethyl)amino)-N-methyl-8-phenylimidazo[1,5-c]pyrimidine-1-carboxamide] |
| > 100 | – | Fc1ccc2c(c1CNc1ncc(-c3ccccc3)c3c(C(F)(F)F)ncn13)CCO2 [Cpd. No. 143, N-((5-fluoro-2,3-dihydrobenzofuran-4-yl)methyl)-8-phenyl-1-(trifluoromethyl)imidazo[1,5-c]pyrimidin-5-amine] |
| > 10 | – | CP(C)(=O)c1ncn2c(NCc3c(F)ccc4c3CCO4)ncc(-c3ccccc3)c12 [Cpd. No. 144, (5-(((5-fluoro-2,3-dihydrobenzofuran-4-yl)methyl)amino)-8-phenylimidazo[1,5-c]pyrimidin-1-yl)dimethylphosphine oxide] |
| 3.68 | – | O=C1OCc2cc(OC(F)(F)F)ccc2-c2cnc(NCc3c(F)ccc4c3CCO4)n3cnc1c23 [compound 31, 12-(((5-fluoro-2,3-dihydrobenzofuran-4-yl)methyl)amino)-7-(trifluoromethoxy)-3H,5H-4-oxa-2,11,12a-triazabenzo[4,5]cycloocta[1,2,3-cd]inden-3-one] |
| 0.57 | – | O=C1c2ncn3c(NCc4c(F)ccc5c4CCO5)ncc(c23)-c2ccc(C(F)(F)F)nc2CN1CC1CCOCC1 [compound 46, 12-(((5-fluoro-2,3-dihydrobenzofuran-4-yl)methyl)amino)-4-((tetrahydro-2H-pyran-4-yl)methyl)-7-(trifluoromethyl)-4,5-dihydro-3H-2,4,6,11,12a-pentaazabenzo[4,5]cycloocta[1,2,3-cd]inden-3-one] |
| 0.65 | – | CC1(O)CC(CN2Cc3nc(C(F)(F)F)ccc3-c3cnc(NCc4c(F)ccc5c4CCO5)n4cnc(c34)C2=O)C1 (stereo not shown) [compound 47, 12-(((5-fluoro-2,3-dihydrobenzofuran-4-yl)methyl)amino)-4-((3-hydroxy-3-methylcyclobutyl)methyl)-7-(trifluoromethyl)-4,5-dihydro-3H-2,4,6,11,12a-pentaazabenzo[4,5]cycloocta[1,2,3-cd]inden-3-one] |
| 0.74 | – | CC(C)(O)CN1Cc2cc(C(F)(F)F)ncc2-c2cnc(NCc3c(F)ccc4c3CCO4)n3cnc(c23)C1=O [compound 48, 12-(((5-fluoro-2,3-dihydrobenzofuran-4-yl)methyl)amino)-4-(2-hydroxy-2-methylpropyl)-7-(trifluoromethyl)-4,5-dihydro-3H-2,4,8,11,12a-pentaazabenzo[4,5]cycloocta[1,2,3-cd]inden-3-one] |
| 2.78 | – | CC1(O)CC(CN2Cc3cc(C(F)(F)F)ncc3-c3cnc(NCc4c(F)ccc5c4CCO5)n4cnc(c34)C2=O)C1 (stereo not shown) [compound 49, 12-(((5-fluoro-2,3-dihydrobenzofuran-4-yl)methyl)amino)-4-((3-hydroxy-3-methylcyclobutyl)methyl)-7-(trifluoromethyl)-4,5-dihydro-3H-2,4,8,11,12a-pentaazabenzo[4,5]cycloocta[1,2,3-cd]inden-3-one] |
| 0.71 | – | Cc1ccc2c(n1)CN(CC1CC(C)(O)C1)C(=O)c1ncn3c(NCc4c(F)ccc5c4CCO5)ncc-2c13 (stereo not shown) [compound 50, 12-(((5-fluoro-2,3-dihydrobenzofuran-4-yl)methyl)amino)-4-((3-hydroxy-3-methylcyclobutyl)methyl)-7-methyl-4,5-dihydro-3H-2,4,6,11,12a-pentaazabenzo[4,5]cycloocta[1,2,3-cd]inden-3-one] |
| 2.08 | – | O=C1c2ncn3c(NCc4c(F)ccc5c4CCO5)ncc(c23)-c2ccc(C(F)(F)F)nc2CN1C1CCOCC1 [compound 51, 12-(((5-fluoro-2,3-dihydrobenzofuran-4-yl)methyl)amino)-4-(tetrahydro-2H-pyran-4-yl)-7-(trifluoromethyl)-4,5-dihydro-3H-2,4,6,11,12a-pentaazabenzo[4,5]cycloocta[1,2,3-cd]inden-3-one] |
| 0.54 | – | O=C1c2ncn3c(NCc4c(F)ccc5c4CCO5)ncc(c23)-c2ccc(C(F)(F)F)nc2CN1CC1CCOC1 (stereo not shown) [compound 52, 12-(((5-fluoro-2,3-dihydrobenzofuran-4-yl)methyl)amino)-4-((tetrahydrofuran-3-yl)methyl)-7-(trifluoromethyl)-4,5-dihydro-3H-2,4,6,11,12a-pentaazabenzo[4,5]cycloocta[1,2,3-cd]inden-3-one] |
| > 100 | – | Cn1ncc2c1CNC(=O)c1ncn3c(NCc4c(F)ccc5c4CCO5)ncc-2c13 [compound 53, 11-(((5-fluoro-2,3-dihydrobenzofuran-4-yl)methyl)amino)-6-methyl-5,6-dihydro-2,4,6,7,10,11a-hexaazacyclopenta[4,5]cycloocta[1,2,3-cd]inden-3(4H)-one] |
| > 100 | – | Cn1cc2c(n1)COC(=O)c1ncn3c(NCc4c(F)ccc5c4CCO5)ncc-2c13 [compound 54, 11-(((5-fluoro-2,3-dihydrobenzofuran-4-yl)methyl)amino)-7-methyl-5,7-dihydro-3H-4-oxa-2,6,7,10,11a-pentaazacyclopenta[4,5]cycloocta[1,2,3-cd]inden-3-one] |
| 8.08 | – | O=C1c2ncn3c(NCc4c(F)ccc5c4CCO5)ncc(c23)-c2ccc(C(F)(F)F)nc2CN1CC1CC1 [compound 55, 4-(cyclopropylmethyl)-12-(((5-fluoro-2,3-dihydrobenzofuran-4-yl)methyl)amino)-7-(trifluoromethyl)-4,5-dihydro-3H-2,4,6,11,12a-pentaazabenzo[4,5]cycloocta[1,2,3-cd]inden-3-one] |
| 21 | – | Cc1nn(C)c2c1-c1cnc(NCc3c(F)ccc4c3CCO4)n3cnc(c13)C(=O)N(C1CC1)C2 [compound 56, 4-cyclopropyl-11-(((5-fluoro-2,3-dihydrobenzofuran-4-yl)methyl)amino)-6,8-dimethyl-5,6-dihydro-2,4,6,7,10,11a-hexaazacyclopenta[4,5]cycloocta[1,2,3-cd]inden-3(4H)-one] |
| 2.63 | – | COCCN1Cc2nc(C(F)(F)F)ccc2-c2cnc(NCc3c(F)ccc4c3CCO4)n3cnc(c23)C1=O [compound 57, 12-(((5-fluoro-2,3-dihydrobenzofuran-4-yl)methyl)amino)-4-(2-methoxyethyl)-7-(trifluoromethyl)-4,5-dihydro-3H-2,4,6,11,12a-pentaazabenzo[4,5]cycloocta[1,2,3-cd]inden-3-one] |
| 39.9 | – | CC(C)N1Cc2nc(C(F)(F)F)ccc2-c2cnc(NCc3c(F)ccc4c3CCO4)n3cnc(c23)C1=O [compound 59, 12-(((5-fluoro-2,3-dihydrobenzofuran-4-yl)methyl)amino)-4-isopropyl-7-(trifluoromethyl)-4,5-dihydro-3H-2,4,6,11,12a-pentaazabenzo[4,5]cycloocta[1,2,3-cd]inden-3-one] |
| 1.18 | – | O=C1c2ncn3c(NCc4c(F)ccc5c4CCO5)ncc(c23)-c2ccc(C(F)(F)F)cc2CN1C1CCOCC1 [compound 60, 12-(((5-fluoro-2,3-dihydrobenzofuran-4-yl)methyl)amino)-4-(tetrahydro-2H-pyran-4-yl)-7-(trifluoromethyl)-4,5-dihydro-3H-2,4,11,12a-tetraazabenzo[4,5]cycloocta[1,2,3-cd]inden-3-one] |
| 1.63 | – | O=C1c2ncn3c(NCc4c(F)ccc5c4CCO5)ncc(c23)-c2ccc(C(F)(F)F)cc2CN1CCF [compound 61, 12-(((5-fluoro-2,3-dihydrobenzofuran-4-yl)methyl)amino)-4-(2-fluoroethyl)-7-(trifluoromethyl)-4,5-dihydro-3H-2,4,11,12a-tetraazabenzo[4,5]cycloocta[1,2,3-cd]inden-3-one] |
| 4.86 | – | CC(C)(F)CN1Cc2cc(C(F)(F)F)ccc2-c2cnc(NCc3c(F)ccc4c3CCO4)n3cnc(c23)C1=O [compound 62, 12-(((5-fluoro-2,3-dihydrobenzofuran-4-yl)methyl)amino)-4-(2-fluoro-2-methylpropyl)-7-(trifluoromethyl)-4,5-dihydro-3H-2,4,11,12a-tetraazabenzo[4,5]cycloocta[1,2,3-cd]inden-3-one] |
| 3.69 | – | CC(F)(F)CN1Cc2cc(C(F)(F)F)ccc2-c2cnc(NCc3c(F)ccc4c3CCO4)n3cnc(c23)C1=O [compound 63, 4-(2,2-difluoropropyl)-12-(((5-fluoro-2,3-dihydrobenzofuran-4-yl)methyl)amino)-7-(trifluoromethyl)-4,5-dihydro-3H-2,4,11,12a-tetraazabenzo[4,5]cycloocta[1,2,3-cd]inden-3-one] |
| – | 2.44 | O=C1c2ncn3c(NCc4c(F)ccc5c4CCO5)ncc(c23)-c2ccc(F)cc2CN1C1CC1 [compound 64, 4-cyclopropyl-7-fluoro-12-(((5-fluoro-2,3-dihydrobenzofuran-4-yl)methyl)amino)-4,5-dihydro-3H-2,4,11,12a-tetraazabenzo[4,5]cycloocta[1,2,3-cd]inden-3-one] |
| 0.74 | – | O=C1c2ncn3c(NCc4c(F)ccc5c4CCO5)ncc(c23)-c2ccc(C(F)(F)F)cc2CN1CC1CCOCC1 [compound 66, 12-(((5-fluoro-2,3-dihydrobenzofuran-4-yl)methyl)amino)-4-((tetrahydro-2H-pyran-4-yl)methyl)-7-(trifluoromethyl)-4,5-dihydro-3H-2,4,11,12a-tetraazabenzo[4,5]cycloocta[1,2,3-cd]inden-3-one] |
